Laboratory results published in US20030207877A1, “Pyridoquinoxaline antivirals” (priority 2001, published 2003).
pIC50: −log10 of the molar value. “And” between values parts separate entries of the source, which are not always exact repeats. Equal values may be shown once.

Experiments:
HCMV polymerase = molecular target: T1, HCMV polymerase (Human cytomegalovirus, UniProt P08546); assay: HCMV polymerase assay (scintillation proximity assay), original and modified version; format: biochemical; conditions: SPA; several values per example = repeat determinations, assay version not given; read-out: CMV Polymerase IC50
T1 construct: made in house; host or cells: SF-9 insect cells infected with recombinant baculovirus
T1 sequence (P08546 whole entry): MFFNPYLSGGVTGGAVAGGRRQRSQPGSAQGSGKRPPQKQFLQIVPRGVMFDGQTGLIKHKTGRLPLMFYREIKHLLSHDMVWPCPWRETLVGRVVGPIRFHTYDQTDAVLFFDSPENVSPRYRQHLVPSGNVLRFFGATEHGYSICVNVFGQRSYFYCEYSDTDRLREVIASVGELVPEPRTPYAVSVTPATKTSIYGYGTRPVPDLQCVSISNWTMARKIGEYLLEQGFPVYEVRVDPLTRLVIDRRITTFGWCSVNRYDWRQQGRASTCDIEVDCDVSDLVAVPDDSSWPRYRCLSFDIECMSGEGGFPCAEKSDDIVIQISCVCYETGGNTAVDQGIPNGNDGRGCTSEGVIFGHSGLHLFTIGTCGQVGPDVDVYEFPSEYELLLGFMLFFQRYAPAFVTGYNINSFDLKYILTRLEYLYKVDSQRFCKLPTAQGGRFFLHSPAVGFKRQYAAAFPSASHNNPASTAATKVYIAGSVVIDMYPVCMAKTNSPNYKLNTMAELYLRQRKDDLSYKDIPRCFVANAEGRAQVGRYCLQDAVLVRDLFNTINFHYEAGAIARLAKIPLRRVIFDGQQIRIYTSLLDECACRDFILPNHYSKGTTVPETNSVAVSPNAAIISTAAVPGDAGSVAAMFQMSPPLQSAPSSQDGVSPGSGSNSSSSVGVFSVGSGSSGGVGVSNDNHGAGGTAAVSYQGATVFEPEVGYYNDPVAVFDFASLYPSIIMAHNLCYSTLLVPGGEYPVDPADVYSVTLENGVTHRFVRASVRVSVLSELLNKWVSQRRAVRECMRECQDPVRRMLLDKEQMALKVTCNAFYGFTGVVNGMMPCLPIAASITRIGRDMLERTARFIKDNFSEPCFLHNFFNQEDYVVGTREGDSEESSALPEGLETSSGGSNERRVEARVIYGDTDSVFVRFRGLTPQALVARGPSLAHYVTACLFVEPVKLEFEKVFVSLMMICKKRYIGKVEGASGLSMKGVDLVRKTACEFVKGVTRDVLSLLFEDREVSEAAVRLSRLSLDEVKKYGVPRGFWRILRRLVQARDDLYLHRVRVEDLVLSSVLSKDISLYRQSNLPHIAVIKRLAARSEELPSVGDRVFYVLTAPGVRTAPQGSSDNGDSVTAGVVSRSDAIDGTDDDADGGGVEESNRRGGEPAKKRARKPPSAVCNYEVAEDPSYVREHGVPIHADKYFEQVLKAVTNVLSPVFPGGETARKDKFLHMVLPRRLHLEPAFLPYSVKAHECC
Description: The HCMV polymerase assay is performed using a scintillation proximity assay (SPA) as described in several references, such as N.D. Cook, et al., Pharmaceutical Manufacturing International, pages 49-53 (1992); K. Takeuchi, Laboratory Practice, September issue (1992); U.S. Pat. No. 4,568,649 (1986); which are incorporated by reference herein. Reactions are performed in 96-well plates. The assay is conducted in 100 μl volume with 5.4 mM HEPES (pH 7.5), 11.7 MM KCl, 4.5 mM MgCl2, 0.36 mg/ml BSA, and 90 nM ^3H-dTTP. Assays are run with and without CHAPS, (3-[(3-Cholamidopropyl)-dimethylammoniol-1-propane-sulfonate) at a final concentration of 2 mM. HCMV polymerase is diluted in enzyme dilution buffer containing 50% glycerol, 250 mM NaCl, 10 mM HEPES (pH 7.5), 100 μg/ml BSA, and 0.01% sodium azide. The HCMV polymerase, which is expressed in recombinant baculovirus-infected SF-9 cells and purified according to literature procedures, is added at 10% (or 10 μl) of the final reaction volume, i.e., 100 μl. Compounds are diluted in 50% DMSO and 10 μl are added to each well. Control wells contain an equivalent concentration of DMSO. Unless noted otherwise, reactions are initiated via the addition of 6 nM biotinylated poly(dA)-oligo(dT) template/primer to reaction mixtures containing the enzyme, substrate, and compounds of interest. Plates are incubated in a 25° C. or 37° C. H2O bath and terminated via the addition of 40 μl/reaction of 0.5 M EDTA (pH 8) per well. Reactions are terminated within the time-frame during which substrate incorporation is linear and varied depending upon the enzyme and conditions used, i.e., 30 min. for HCMV polymerase. Ten (10) μl of streptavidin-SPA beads (20 mg/ml in PBS/10% glycerol) are added following termination of the reaction. Plates are incubated 10 min. at 37° C., then equilibrated to room temperature, and counted on a Packard Topcount. Linear regressions are performed and IC50's are calculated using computer software.
A modified version of the above HCMV polymerase assay is performed as described above, but with the following changes: Compounds are diluted in 100% DMSO until final dilution into assay buffer. In the previous assay, compounds are diluted in 50% DMSO. 4.5 mM dithiotherotol (DTT) is added to the polymerase buffer.

Alpha Polymerase = molecular target: T2, Alpha Polymerase (Homo sapiens, UniProt P09884); assay: Alpha polymerase inhibition (selectivity); format: biochemical
T2 sequence (P09884 1-1462): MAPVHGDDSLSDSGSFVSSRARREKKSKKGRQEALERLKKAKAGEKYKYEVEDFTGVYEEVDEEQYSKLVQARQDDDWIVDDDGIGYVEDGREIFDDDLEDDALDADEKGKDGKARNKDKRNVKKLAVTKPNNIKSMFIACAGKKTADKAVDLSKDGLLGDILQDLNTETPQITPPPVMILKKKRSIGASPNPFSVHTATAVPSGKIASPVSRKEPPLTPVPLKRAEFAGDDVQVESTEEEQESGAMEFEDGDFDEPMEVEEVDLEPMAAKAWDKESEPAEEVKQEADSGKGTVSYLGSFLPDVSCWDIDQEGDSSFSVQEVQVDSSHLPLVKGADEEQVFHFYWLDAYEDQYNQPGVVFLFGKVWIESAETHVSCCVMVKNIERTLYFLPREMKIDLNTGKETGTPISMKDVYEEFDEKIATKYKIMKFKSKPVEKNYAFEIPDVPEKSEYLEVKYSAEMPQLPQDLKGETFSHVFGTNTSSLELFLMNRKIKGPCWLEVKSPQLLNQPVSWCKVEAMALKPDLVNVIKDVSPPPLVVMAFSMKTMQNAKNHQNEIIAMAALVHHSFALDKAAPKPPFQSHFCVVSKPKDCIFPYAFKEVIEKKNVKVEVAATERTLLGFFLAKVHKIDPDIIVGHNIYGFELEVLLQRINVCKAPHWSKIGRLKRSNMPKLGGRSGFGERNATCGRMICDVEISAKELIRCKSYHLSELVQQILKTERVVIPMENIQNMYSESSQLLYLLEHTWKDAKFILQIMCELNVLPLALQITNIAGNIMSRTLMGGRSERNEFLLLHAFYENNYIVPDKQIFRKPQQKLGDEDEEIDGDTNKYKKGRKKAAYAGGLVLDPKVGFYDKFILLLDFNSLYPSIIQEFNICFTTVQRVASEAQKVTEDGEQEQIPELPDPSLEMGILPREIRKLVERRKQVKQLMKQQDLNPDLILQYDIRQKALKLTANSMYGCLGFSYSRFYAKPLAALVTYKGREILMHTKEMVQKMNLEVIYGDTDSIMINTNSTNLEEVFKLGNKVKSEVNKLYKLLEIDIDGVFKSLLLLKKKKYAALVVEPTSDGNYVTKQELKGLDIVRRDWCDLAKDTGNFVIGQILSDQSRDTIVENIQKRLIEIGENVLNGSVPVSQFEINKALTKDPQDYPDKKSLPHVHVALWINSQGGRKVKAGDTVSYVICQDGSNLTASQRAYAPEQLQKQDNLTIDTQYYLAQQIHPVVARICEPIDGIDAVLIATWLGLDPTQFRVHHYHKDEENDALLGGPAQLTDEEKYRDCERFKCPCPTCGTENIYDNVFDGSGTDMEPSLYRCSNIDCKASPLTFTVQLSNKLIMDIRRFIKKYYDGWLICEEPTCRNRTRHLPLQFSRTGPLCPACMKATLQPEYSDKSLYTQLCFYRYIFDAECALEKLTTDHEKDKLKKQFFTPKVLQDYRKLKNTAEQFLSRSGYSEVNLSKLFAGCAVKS

pIC50 (HCMV polymerase) | pIC50 (Alpha Polymerase) | melting point | SMILES
6.92 and 7.05 | < 4.70 | 159 to 161 °C | Cc1ccc(C(O)CN(C)Cc2cc3c4c(c2)c(=O)c(C(=O)NCc2ccc(Cl)cc2)cn4CC(=O)N3C)o1 (racemic) [Example 6, rac N-(4-chlorobenzyl)-9-{([2-hydroxy-2-(5-methyl-2-furyl)ethyl](methyl)amino)methyl}-1-methyl-2,7-dioxo-2,3-dihydro-1H,7H-pyrido[1,2,3-de]quinoxaline-6-carboxamide]
6.96 and 7.07 | < 4.70 | 147 to 149 °C | CN(Cc1cc2c3c(c1)c(=O)c(C(=O)NCc1ccc(Cl)cc1)cn3CC(=O)N2C)CC(O)c1csc2ccccc12 (racemic) [Example 15, rac 9-{([2-(1-benzothien-3-yl)-2-hydroxyethyl](methyl)amino)methyl}-N-(4-chlorobenzyl)-1-methyl-2,7-dioxo-2,3-dihydro-1H,7H-pyrido[1,2,3-de]quinoxaline-6-carboxamide]
6.82 and 7.12 | < 4.70 | 131 to 135 °C | CN(Cc1cc2c3c(c1)c(=O)c(C(=O)NCc1ccc(Cl)cc1)cn3CC(=O)N2C)C[C@@H](O)c1cccnc1 [Example 13, N-(4-chlorobenzyl)-9-{[[(2S)-2-hydroxy-2-pyridin-3-ylethyl](methyl)amino]methyl}-1-methyl-2,7-dioxo-2,3-dihydro-1H,7H-pyrido[1,2,3-de]quinoxaline-6-carboxamide]
7.32 and 7.44 | < 4.70 | 173 to 177 °C | CN(Cc1cc2c3c(c1)c(=O)c(C(=O)NCc1ccc(Cl)cc1)cn3CC(=O)N2C)CC(O)c1ccc2ccccc2n1 (racemic) [Example 16, rac N-(4-chlorobenzyl)-9-{([2-hydroxy-2-quinolin-2-ylethyl](methyl)amino)methyl 1-1-methyl-2,7-dioxo-2,3-dihydro-1H,7H-pyrido[1,2,3-de]quinoxaline-6-carboxamide]
6.96 and 7.34 | < 4.70 | 119 to 120 °C | CN(Cc1cc2c3c(c1)c(=O)c(C(=O)NCc1ccc(Cl)cc1)cn3CC(=O)N2C)C[C@@H](O)c1ccco1 [Example 11, N-(4-chlorobenzyl)-9-{[[(2R)-2-(2-furyl)-2-hydroxyethyl](methyl)amino]methyl}-1-methyl-2,7-dioxo-2,3-dihydro-1H,7H-pyrido[1,2,3-de]quinoxaline-6-carboxamide]
6.80 and 6.92 | < 5.00 | 97 to 98 °C | CN(Cc1cc2c3c(c1)c(=O)c(C(=O)NCc1ccc(Cl)cc1)cn3CC(=O)N2C)C[C@@H](O)c1cnccn1 [Example 21, N-(4-chlorobenzyl)-9-{[[(2R)-2-hydroxy-2-pyrazin-2-ylethyl](methyl)amino]methyl}-1-methyl-2,7-dioxo-2,3-dihydro-1H,7H-pyrido[1,2,3-de]quinoxaline-6-carboxamide]
